In this assay the target is T1, TcCA (Trypanosoma cruzi carbonic anhydrase) (Trypanosoma cruzi, UniProt Q4CVY4).
T1 construct: gene Tc00.1047053509597.20
T1 sequence (Q4CVY4 39-638): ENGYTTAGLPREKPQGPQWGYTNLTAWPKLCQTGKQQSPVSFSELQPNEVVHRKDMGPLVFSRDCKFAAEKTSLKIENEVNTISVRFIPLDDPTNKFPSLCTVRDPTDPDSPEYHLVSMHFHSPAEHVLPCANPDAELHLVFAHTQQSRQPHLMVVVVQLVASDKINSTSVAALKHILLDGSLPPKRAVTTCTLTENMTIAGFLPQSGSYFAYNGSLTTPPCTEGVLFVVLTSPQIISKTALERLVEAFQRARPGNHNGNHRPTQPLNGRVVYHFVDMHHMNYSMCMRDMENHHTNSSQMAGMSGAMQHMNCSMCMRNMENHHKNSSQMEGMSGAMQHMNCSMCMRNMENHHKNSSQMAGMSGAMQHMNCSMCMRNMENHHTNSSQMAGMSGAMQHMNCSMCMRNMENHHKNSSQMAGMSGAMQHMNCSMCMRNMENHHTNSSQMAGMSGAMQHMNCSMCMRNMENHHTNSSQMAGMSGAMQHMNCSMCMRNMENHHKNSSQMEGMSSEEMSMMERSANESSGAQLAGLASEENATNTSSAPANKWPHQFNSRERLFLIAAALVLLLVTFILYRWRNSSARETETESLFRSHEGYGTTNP
In words: stopped-flow CO2 hydration assay. Conditions: read-out: KITcCA. The format is biochemical. The text has this: stopped-flow CO2 hydration assay on TcCA (Trypanosoma cruzi carbonic anhydrase)
With `CC1=CC(=O)NS(=O)(=O)O1` [Acesulphame], the Ki stood at 2.24 µM. For `O=S(=O)(O)NC1CCCCC1` [Sodium cyclamate] the value was 0.348 µM; for `COC(=O)[C@H](Cc1ccccc1)NS(=O)(=O)NCC(C)C` [compound 5, 5], 0.261 µM; for `COC(=O)CCNS(=O)(=O)NCCc1ccccc1` [compound 7, 7], 7.25 µM.

Source of the values: paper PMC6807911, “A structure-based approach towards the identification of novel antichagasic compounds: Trypanosoma cruzi carbonic anhydrase inhibitors” (Journal of Enzyme Inhibition and Medicinal Chemistry, 2019).
